# Patent publication US20160000787A1, “INHIBITORS OF CDK8/19 FOR USE IN TREATING ESTROGEN RECEPTOR POSITIVE BREAST CANCER” (SENEX BIOTECHNOLOGY, INC., priority 2013, published 2016)
# How the values were obtained:
# Format in all cases: cell-based
# [1] = test system: T47D cells; experiment: Growth inhibition, 6-day treatment, Coulter counter; conditions: 6 days
# Source text: (§1) Both MCF7-1pE and MCF7-Veh are resistant to tamoxifen and MCF7-Veh is also resistant to fulvestrant.
# [2] = test system: MCF7-1pE cells; experiment: as above; conditions: 6 days
# Source text: as §1
# [3] = test system: BT474 cells; experiment: as above; conditions: 6 days
# Source text: as §1
# [4] = test system: MCF7 cells; experiment: as above; conditions: 6 days
# Source text: as §1
# [5] = test system: MCF7-Veh cells; experiment: as above; conditions: 6 days
# Source text: as §1
# [6] = test system: estrogen-depleted MCF7 cells; experiment: Estrogen (E2) mitogenic stimulation assay, flow cytometric cell counting; conditions: for decrease of cell number: 4 days after E2 addition, fulvestrant 1 nM and/or Senexin A 1 μM; for effect on E2-stimulated cell growth: 10 nM E2
# Experimental: To test the effect of CDK8/19 inhibition on the mitogenic effect of estrogen in estrogen-responsive BrCa cells, MCF7 cells (ER+BrCa line) were placed into estrogen-depleted phenol red-free media with 10% charcoal-stripped serum. Under these conditions cells are largely but not completely estrogen-depleted (full depletion would require adapting the cells to low serum, since the cells can synthesize estrogen from serum components). Cells were then plated in the presence or absence of Senexin A (at 1 μM and 5 μM concentrations), and either 10 nM of the estrogen 17-β-estradiol (E2) or vehicle control were added on the following day. Cell growth was measured by flow cytometric counting of live (PI-negative) and dead (PI-positive) cells over 4 days.
# The interaction between Senexin A and fulvestrant in MCF7 cells was investigated in the estrogen (E2) mitogenic stimulation assay, carried out as described in example 1, with the cell number measured by flow cytometry 4 days after E2 addition.
# [7] = test system: MCF7-1pE cells; experiment: Long-term (11-day) drug treatment, crystal violet staining
# [8] = test system: CXCL12 expression in estrogen-depleted MCF7 cells; experiment: QPCR analysis of estrogen-inducible gene expression; conditions: two concentrations of Senexin A, with or without E2
# Source text: (§2) Rae et al., (2005) used microarray profiling to analyze the effects of E2 and ER antagonists on gene expression in three ER+BrCa cell lines, MCF7, T47D and BT-474. […] The cytokine CXCL12 was also shown to mediate the mitogenic effect of E2 (Sauve et al., 2009) and, together with its receptor CXCR4, to be a key determinant of metastasis in cancers of the breast and other organs (Muller et al., 2001; Rhodes et al., 2011). […] The effect of Senexin A on CXCL12, a known mediator of metastasis, is of particular interest as a possible cause of the association of CDK8 expression with shorter RFS.
# [9] = test system: TFF1 expression in estrogen-depleted MCF7 cells; experiment: as above; conditions: two concentrations of Senexin A, with or without E2
# Source text: as §2
# [10] = test system: GREB1 expression in estrogen-depleted MCF7 cells; experiment: as above; conditions: two concentrations of Senexin A, with or without E2
# Source text: as §2
# [11] = test system: T47D cells; experiment: Time course of cell growth over 7 days, Coulter counter; conditions: different concentrations
# Source text: (§3) Senexin A alone inhibited cell growth, with the strongest effects observed in the estrogen-dependent lines T47D and parental MCF7 and the weakest effects in cell lines that are fully or partially estrogen-independent (MCF7-Veh, MCF7-1p).
# [12] = test system: BT474 cells; experiment: as above; conditions: different concentrations
# Source text: as §3
# [13] = test system: MCF7 cells; experiment: as above; conditions: different concentrations
# Source text: as §3
# [14] = test system: ER-dependent ERE-containing promoter in T47D-ER/Luc cells; experiment: ER-dependent ERE promoter luciferase reporter assay; conditions: different concentrations; 10 nM E2 added 1 h later; read 18 hrs later
# Experimental: To determine whether the effect of CDK8 on ER-inducible gene expression is mediated through inhibition of the transcriptional effect of ER, which is exerted through ER binding to the ERE promoter element, a T47D-based reporter cell line was used. The cell line T47D-ER/Luc (obtained from Signosis) expresses firefly luciferase from the ER-dependent ERE-containing promoter. The reporter cell line was estrogen-depleted, then Senexin A was added at different concentrations, and one hour later 10 nM E2 was added. 18 hrs later, cells were counted and luciferase activity was measured.
# [15] = test system: MCF7-Veh cells; experiment: Long-term (11-day) drug treatment, crystal violet staining
# [16] = Homo sapiens, 144 h, FUL 1 nM, alone or with SenA 5 μM, read-out: % growth inhibition relative to control
# [17] = Homo sapiens, 144 h, FUL 10 nM, alone or with SenA 5 μM, read-out: % growth inhibition relative to control
# [18] = 144 h, FUL 1 nM, alone or with SenA 5 μM, read-out: % growth inhibition relative to control
# [19] = 144 h, FUL 10 nM, alone or with SenA 5 μM, read-out: % growth inhibition relative to control
# [20] = Homo sapiens, 144 h, TAM 1 μM, alone or with SenA 5 μM, read-out: % growth inhibition relative to control
# [21] = Homo sapiens, 144 h, TAM 5 μM, alone or with SenA 5 μM, read-out: % growth inhibition relative to control
# [22] = 144 h, TAM 1 μM, alone or with SenA 5 μM, read-out: % growth inhibition relative to control
# [23] = 144 h, TAM 5 μM, alone or with SenA 5 μM, read-out: % growth inhibition relative to control
smiles,measurement,setting,value
"C[C@]12CC[C@@H]3c4ccc(O)cc4C[C@@H](CCCCCCCCC[S+]([O-])CCCC(F)(F)C(F)(F)F)[C@H]3[C@@H]1CC[C@@H]2O (stereo partly shown) [FUL, fulvestrant]",inhibition at 0.001 µM,[1]; [16],56.5%
same,inhibition at 0.01 µM,[1]; [17],58.2%
same,inhibition at 0.001 µM,[2]; [18],49.7%
same,inhibition at 0.01 µM,[2]; [19],57.2%
same,inhibition at 0.001 µM,"[3]; Homo sapiens, BT-474, 144 h, FUL 1 nM, alone or with SenA 5 μM, read-out: % growth inhibition relative to control",17.7%
same,inhibition at 0.01 µM,"[3]; Homo sapiens, BT-474, 144 h, FUL 10 nM, alone or with SenA 5 μM, read-out: % growth inhibition relative to control",22.6%
same,inhibition at 0.001 µM,[4]; [16],62%
same,inhibition at 0.01 µM,[4]; [17],63.6%
same,inhibition at 0.001 µM,[5]; [18],12.4%
same,inhibition at 0.01 µM,[5]; [19],28%
same,decrease of cell number,[6],27%
N#Cc1ccc2ncnc(NCCc3ccccc3)c2c1 [Senexin A],% growth inhibition relative to control,[1]; SenA 5 μM,48%
same,% growth inhibition relative to control,[2]; SenA 5 μM,19.1%
same,% growth inhibition relative to control,[3]; SenA 5 μM,23.9%
same,% growth inhibition relative to control,[4]; SenA 5 μM,37%
same,% growth inhibition relative to control,[5]; SenA 5 μM,15.5%
same,effect on E2-stimulated cell growth,"[6]; 1 μM Senexin A, over 4 days",partial effect
same,effect on E2-stimulated cell growth,"[6]; 5 μM Senexin A, over 4 days",abolished
same,effect on cell growth without E2 addition,"[6]; 5 μM Senexin A, no E2, over 4 days",inhibited cell growth without E2 addition but to a lesser extent
same,decrease of cell number,[6],5%
same,nature of effect / induction of cell death (PI-positive cells),"[6]; Senexin A 1 μM and 5 μM, over 4 days",cytostatic and were not associated with any significant induction of cell death
same,potentiation of fulvestrant effects,[7],especially apparent
same,CXCL12 expression (QPCR),[8],inhibited
same,TFF1 expression (QPCR),[9],inhibited
same,GREB1 expression (QPCR),[10],inhibited
same,"growth inhibition, time course",[11],concentration-dependent growth inhibition
same,"growth inhibition, time course",[12],concentration-dependent growth inhibition
same,"growth inhibition, time course",[13],concentration-dependent growth inhibition
same,transcription from ER-dependent promoter (luciferase activity),[14],strongly inhibited
same,potentiation of fulvestrant effects,[15],especially apparent
CN1CCN(C(=O)c2ccc3cc(CCNc4ncnc5ccc(C#N)cc45)ccc3c2)CC1 [Senexin B],"growth inhibition, time course",[11],concentration-dependent growth inhibition
same,"growth inhibition, time course",[12],concentration-dependent growth inhibition
same,"growth inhibition, time course",[13],concentration-dependent growth inhibition
"CC/C(=C(\c1ccc(O)cc1)c1ccc(OCCN(C)C)cc1)c1ccccc1 [TAM, 4-OH tamoxifen]",inhibition at 1 µM,[1]; [20],54.6%
same,inhibition at 5 µM,[1]; [21],62.3%
same,inhibition at 1 µM,[2]; [22],-1.3%
same,inhibition at 5 µM,[2]; [23],1.5%
same,inhibition at 1 µM,"[3]; Homo sapiens, BT-474, 144 h, TAM 1 μM, alone or with SenA 5 μM, read-out: % growth inhibition relative to control",28.8%
same,inhibition at 5 µM,"[3]; Homo sapiens, BT-474, 144 h, TAM 5 μM, alone or with SenA 5 μM, read-out: % growth inhibition relative to control",42.3%
same,inhibition at 1 µM,[4]; [20],34.8%
same,inhibition at 5 µM,[4]; [21],50.7%
same,inhibition at 1 µM,[5]; [22],2.6%
same,inhibition at 5 µM,[5]; [23],1%
